The numbers were not newly measured in patent publication US12616206B2, “Graphene-silver nanocomposites and uses for same as an antimicrobial composition” (ZENTEK LTD., priority 2020, dated 2026), which cites them from elsewhere.

Among the test systems are Vibrio cholerae; Streptococcus pyogenes; Candida albicans; Salmonella typhi.
Conditions in all cases: literature value, source by footnote a-g

As to `O=[N+]([O-])[O-].[Ag+]` [AgNO3, silver nitrate], the MIC with Vibrio cholerae is on record as 70 ^c μg/mL; in the series on Streptococcus pyogenes, 80 ^c μg/mL; in the series on Candida albicans it was 4.9 ^f μg/mL; with Salmonella typhi it was 110 ^c μg/mL.
